ChEMBL document CHEMBL1151713, “S-alkenyl cysteine sulfoxide and its antioxidant properties from Allium cepa var. tropeana (red onion) seeds” (J Nat Prod, 2008)

Columns and labels:
[1] = Antioxidant activity by ferric reducing antioxidant power assay; type: functional
[2] = test system: Radical scavenging activity; experiment: Antioxidant activity assessed as DPPH radical scavenging activity by Brand-Williams method; type: functional

Compound | Activity [1] [µM] | Activity [2] [µM]
O=C1O[C@H]([C@@H](O)CO)C(O)=C1O | 824 | 903
C/C=C/CC[S+]([O-])C[C@@H](N)C(=O)O (stereo partly specified) | 178 | 107
Cc1cc(C(C)(C)C)c(O)c(C(C)(C)C)c1 | 677 | 637
